# Reference: patent US7732468B2, “3-aryl-6-aryl-[ 1,2,4]triazolo[3,4-b][1,3,4]thiadiazoles and related compounds as activators of caspases and inducers of apoptosis and the use thereof” (Cytovia, Inc., priority 2006, dated 2010)
# Legend:
# Format in all cases: cell-based
# [1] = tested on: human B cell lymphoblastoid cell line Ramos; test: Caspase cascade activation in Ramos cells; conditions: 48 h incubation, read-out: caspase potency EC50 RAMOS
# Protocol: (§1) Human breast cancer cell lines T-47D, human hepatocellular carcinoma cell line SNU398, human colon carcinoma cell line HCT116, human cancer cell line H11299, human Burkitt's lymphoma cell line Namalwa, human lymphoma cell line Raji, and human B cell lymphoblastoid cell line Ramos were grown according to media component mixtures designated by American Type Culture Collection+10% FCS (Invitrogen Corporation), in a 5% CO2-95% humidity incubator at 37° C. T-47D and H1299 cells were maintained at a cell density between 50 and 80% confluency at a cell density of 0.1 to 0.6×10^6 cells/mL. Cells were harvested at 600×g and resuspended at 0.65×10^6 cells/mL into appropriate media+10% FCS. An aliquot of 22.5 μL of cells was added to a well of a 384-well microtiter plate containing 2.5 μL of a 10% DMSO in RPMI-1640 media solution containing 0.16 to 100 μM of 6-(3,4-dimethoxyphenyl)-3-(2-methoxyphenyl)-[1,2,4]triazolo[3,4-b][1,3,4]thiadiazole or other test compound (0.016 to 10 μM final). An aliquot of 22.5 μL of cells was added to a well of a 384-well microtiter plate containing 2.5 μL of a 10% DMSO in RPMI-1640 media solution without test compound as the control sample. The samples were mixed by agitation and then incubated at 37° C. for 48 h in a 5% CO2-95% humidity incubator. After incubation, the samples were removed from the incubator and 25 μL of a solution containing 14 μM of N-(Ac-DEVD)-N′-ethoxycarbonyl-R110 (SEQ ID No.:1) fluorogenic substrate (Cytovia, Inc.; WO99/18856), 20% sucrose (Sigma), 20 mM DTT (Sigma), 200 mM NaCl (Sigma), 40 mM Na PIPES buffer pH 7.2 (Sigma), and 500 μg/mL lysolecithin (Calbiochem) was added. The samples were mixed by agitation and incubated at room temperature. Using a fluorescent plate reader (Model SPECTRAfluor Plus, Tecan), an initial reading (T=0) was made approximately 1-2 min after addition of the substrate solution, employing excitation at 485 nm and emission at 530 nm, to determine the background fluorescence of the control sample. After the 3 h incubation, the samples were read for fluorescence as above (T=3 h).
# (§2) The Relative Fluorescence Unit values (RFU) were used to calculate the sample readings as follows: RFU(T=3h)−Control RFU(T=0)=Net RFU(T=3h)
# (§3) The activity of caspase cascade activation was determined by the ratio of the net RFU value for 6-(3,4-dimethoxyphenyl)-3-(2-methoxyphenyl)-[1,2,4]triazolo[3,4-b][1,3,4]thiadiazole (Example I) or other test compound to that of control samples. The EC50 (nM) was determined by a sigmoidal dose-response calculation (Prism 3.0, GraphPad Software Inc.).
# [2] = tested on: human Burkitt's lymphoma cell line Namalwa; test: Caspase cascade activation in Namalwa cells; conditions: Burkitts lymphoma cell, 48 h incubation, read-out: caspase potency EC50 Namalwa
# Protocol: as §1, §2, §3
# [3] = tested on: human lymphoma cell line Raji; test: Caspase cascade activation in Raji cells; conditions: RAJ1 cells, 48 h incubation, read-out: caspase potency EC50 RAJ1
# Protocol: as §1, §2, §3
# [4] = tested on: human hepatocellular carcinoma cell line SNU398; test: Caspase cascade activation in SNU398 cells; conditions: SNU-398, 48 h incubation, read-out: caspase potency EC50 SNU398
# Protocol: as §1, §2, §3
# [5] = tested on: human colon carcinoma cell line HCT116; test: Caspase cascade activation in HCT116 cells; conditions: HCT-116, 48 h incubation, read-out: caspase potency EC50 HCT116
# Protocol: as §1, §2, §3
# [6] = tested on: Human breast cancer cell lines T-47D; test: Caspase cascade activation (Ac-DEVD-R110 fluorogenic substrate) in T-47D cells; conditions: T47D cells, 48 h incubation, read-out: caspase potency EC50 T47D
# Protocol: as §1, §2, §3
# [7] = tested on: human cancer cell line H1299; test: Caspase cascade activation in H1299 cells; conditions: NCI-H1299, 48 h incubation, read-out: caspase potency EC50 H1299
# Protocol: as §1, §2, §3
# [8] = tested on: human leukemia cell line K562; test: Inhibition of cell proliferation (GI50) in K562 cells; conditions: 48 h incubation
# Protocol: (§4) Human breast cancer cell lines T-47D, MX1 and MDAMB435, human colon carcinoma cell line HCT116, human leukemia cell line K562, human lymphoma cell line Raji, human B cell lymphoblastoid cell line Ramos, and human Burkitt's lymphoma cell line Namalwa were grown and harvested as in Example 14. An aliquot of […] of cells (4.4×10^4 cells/mL) was added to a well of a 96-well microtiter plate containing 5 μL of a 10% DMSO in RPMI-1640 media solution containing 10 nM to 100 μM of 6-(3,4-dimethoxyphenyl)-3-(2-methoxyphenyl)-[1,2,4]triazolo[3,4-b][1,3,4]thiadiazole (1 nM to 10 μM final). An aliquot of 45 μL of cells was added to a well of a 96-well microtiter plate containing 5 μL of a 10% DMSO in RPMI-1640 media solution without compound as the control sample for maximal cell proliferation (LMax). The samples were mixed by agitation and then incubated at 37° C. for 48 h in a 5% CO2-95% humidity incubator. After incubation, the samples were removed from the incubator and 25 μL of CellTiter-Glo™ reagent (Promega) was added. The samples were mixed by agitation and incubated at room temperature for 10-15 min. Plates were then read using a luminescent plate reader (Model SPECTRAfluor Plus, Tecan) to give Ltest values.
# (§5) The samples were mixed by agitation and then incubated at 37° C. for 0.5 h in a 5% CO2-95% humidity incubator. After incubation, the samples were removed from the incubator and 25 μL of CellTiter-Glo™ reagent (Promega) was added. The samples were mixed by agitation and incubated at […] 10-15 min at room temperature in a 5% CO2-95% humidity incubator. Fluorescence was read as above, (LStart) defining luminescence for initial cell number used as baseline in GI50 determinations.
# (§6) GI50 (dose for 50% inhibition of cell proliferation) is the concentration where [(LTest−LStart)/(LMax−LStart)]=0.5.
# [9] = tested on: human lymphoma cell line Raji; test: Inhibition of cell proliferation (GI50) in Raji cells; conditions: 48 h incubation
# Protocol: as §4, §5, §6
# [10] = tested on: human colon carcinoma cell line HCT116; test: Inhibition of cell proliferation (GI50) in HCT116 cells; conditions: HCT 116 cells, 48 h incubation
# Protocol: as §4, §5, §6
# [11] = tested on: human B cell lymphoblastoid cell line Ramos; test: Inhibition of cell proliferation (GI50) in Ramos cells; conditions: 48 h incubation
# Protocol: as §4, §5, §6
# [12] = tested on: human Burkitt's lymphoma cell line Namalwa; test: Inhibition of cell proliferation (GI50) in Namalwa cells; conditions: Burkitts lymphoma cell, 48 h incubation
# Protocol: as §4, §5, §6
Structure (SMILES),EC50 [1],EC50 [2],EC50 [3],EC50 [4],EC50 [5],EC50 [6],EC50 [7],GI50 [8],GI50 [9],GI50 [10],GI50 [11],GI50 [12]
"Clc1ccccc1-c1nnc2sc(-c3ccc4c(c3)OCO4)nn12 [L, 3-(2-Chlorophenyl)-6-(3,4-methylenedioxyphenyl)-[1,2,4]triazolo[3,4-b][1,3,4]thiadiazole]",> 10 µM,> 10 µM,> 10 µM,> 10 µM,> 10 µM,2.62 µM,> 10 µM,–,–,–,–,–
"COc1ccc(-c2nn3c(-c4ccc(Cl)cc4)nnc3s2)cc1 [M, 3-(4-Chlorophenyl)-6-(4-methoxyphenyl)-[1,2,4]triazolo[3,4-b][1,3,4]thiadiazole]",> 10 µM,> 10 µM,> 10 µM,> 10 µM,> 10 µM,4.48 µM,5.05 µM,–,–,–,–,–
"COc1ccc(-c2nn3c(-c4ccc(Cl)cc4Cl)nnc3s2)cc1OC [N, 3-(2,4-Dichlorophenyl)-6-(3,4-dimethoxyphenyl)-[1,2,4]triazolo[3,4-b][1,3,4]thiadiazole]",5.78 µM,5.51 µM,> 10 µM,> 10 µM,> 10 µM,5.02 µM,> 10 µM,–,–,–,–,–
"CCOc1ccc(-c2nn3c(-c4ccccc4Cl)nnc3s2)cc1 [O, 3-(2-Chlorophenyl)-6-(4-ethoxyphenyl)-[1,2,4]triazolo[3,4-b][1,3,4]thiadiazole]",> 10 µM,> 10 µM,> 10 µM,> 10 µM,> 10 µM,2.43 µM,> 10 µM,–,–,–,–,–
"CCOc1ccc(-c2nn3c(-c4ccccc4C)nnc3s2)cc1 [P, 6-(4-Ethoxyphenyl)-3-o-tolyl-[1,2,4]triazolo[3,4-b][1,3,4]thiadiazole]",5.71 µM,> 10 µM,> 10 µM,5.55 µM,5.75 µM,2.37 µM,5.14 µM,3.27 µM,9.74 µM,> 10 µM,6.42 µM,7.69 µM
"COc1cccc(-c2nn3c(-c4cc(OC)c(OC)c(OC)c4)nnc3s2)c1 [U, 6-(3-Methoxyphenyl)-3-(3,4,5-trimethoxyphenyl)-[1,2,4]triazolo[3,4-b][1,3,4]thiadiazole]",> 10 µM,> 10 µM,> 10 µM,> 10 µM,> 10 µM,2.74 µM,–,2.77 µM,4.64 µM,> 10 µM,2.69 µM,> 10 µM
"COc1ccc(-c2nn3c(-c4cc(OC)c(OC)c(OC)c4)nnc3s2)cc1OC [V, 6-(3,4-Dimethoxyphenyl)-3-(3,4,5-trimethoxyphenyl)-[1,2,4]triazolo[3,4-b][1,3,4]thiadiazole]",2.32 µM,> 10 µM,> 10 µM,> 10 µM,> 10 µM,> 10 µM,–,1.6 µM,5 µM,5 µM,3.65 µM,> 10 µM
